The subject of assay [1] is DMS114. Nature of the assay: Anti-proliferative effect in DMS114 (CellTiter-Glo). The note with it: DMS114, 3 days; for IC50: Homo sapiens, DMS-114, 72 h. It is filed as cell-based. As for the experimental part: This assay studied the inhibitory effect of the compounds on cell proliferation by detecting the effect of the test compounds on the in vitro activity of tumor cells NCI-H1581, DMS114, NCI-H69 and NCI-H526.
The tumor cell lines were cultured in an incubator at 37° C., 5% CO2 or 0% CO2 according to the above culture conditions. The cells were periodically passaged, and cells in logarithmic growth phase were taken for plating. • 2. Cell plating • (1). Cells were stained with trypan blue and viable cells were counted.
• (3). 100 μL of cell suspension was added to each well of the culture plate, and culture medium without cells was added to the blank control well. • (4). The plate was incubated overnight in an incubator at 37° C., 5% CO2 or 0% CO2, and 100% relative humidity. • 3. Preparation of compound stock solution
Preparation of 1000× compound stock solution: Compound was dissolved in DMSO to 10 mM, then a portion was taken out and diluted to 1000 times the highest acting concentration. The diluted stock solution was dispensed for later use. • 4. Preparation of 5× compound working solution and treatment of cells with compounds. The working solutions were prepared freshly at each time for use. • (1). Preparation of 5× compound working solution: 119.4 μL of cell culture medium was added to a 96-well plate with a V-shaped bottom. 96 μL of DMSO-cell culture medium mix solution (with DMSO content of 0.5%) was added to subsequent gradient wells. 0.6 μL of the compound from the 1000× compound stock solution was added to the cell culture medium in the 96-well plate, and mixed to uniform with a pipette. A pipette was used to draw 24 μL of the compound-cell culture medium mixture into subsequent wells, and the mixture was mixed well by a pipette each time. • (2). Dosing: 25 μL of 5× compound working solution was added to the cell culture plate. 25 μL of DMSO-cell culture medium mix solution (with DMSO content of 0.5%) was added to the vehicle control and blank control. • (3). The 96-well cell plate was placed back into the incubator and cultured for 3 days. • 5. CellTiter-Glo luminescence cell viability detection
The following steps were performed according to the instruction of Promega CellTiter-Glo luminescence cell viability detection kit (Promega-G7573). • (1). The CellTiter-Glo buffer was thawed and allowed to stand to reach room temperature; • (2). CellTiter-Glo substrate was allowed to stand to reach room temperature; • (3). 10 mL of CellTiter-Glo buffer was added to CellTiter-Glo substrate in a bottle to dissolve the substrate to formulate CellTiter-Glo working solution; • (4). […] The culture plates were left at room temperature for 10 minutes to stabilize the luminescence signal; • (9). The luminous signal was detected on the 2104 En Vision plate reader. • 6. […]
A general note: In ATP-based viability assays light output follows the ATP content of the culture.

For assay [2], the target named is GSPT1 (Homo sapiens, UniProt P15170+Q96SW2). Put plainly: Target protein degradation in HEK293T-LgBiT_GSPT1-nHiBiT cells (HiBiT luminescence). The note with it: 16 to 18 hours; for Dmax: read-out: Max. DR (maximum degradation rate). The class given is cell-based. Also on record: expressed in transfected cells. As for the experimental part:
This assay was performed to detect the degradation effect of the test compound on the target protein GSPT1 in HEK293T-LgBiT cells.
• 1. Preparation of compounds • (1). Dissolving the powder of the test compound with DMSO to 10 mM as the storage concentration, and using a pipette to manually draw 9 μL of 10 mM or 3 mM test compound to columns 1 and 13 of a LDV plate; • (2). Using multidrop Combi to add 6 μL of DMSO to columns 2-12 and 14-24; • (3). Using Bravo to dilute the test compound 3 times (3 μL+6 μL) from columns 1 to 11 and 13 to 23; • (4). According to the layout of the plate, using Echo to transfer 25 nL of compound solution (columns 1-24 of the LDV plate) to the assay plate; • (5). Using Echo to transfer 25 nL of 1 mM positive control solution to the assay plate as a 100% degradation control (i.e. LC, HPE), and to transfer 25 nL of DMSO to the assay plate as a 0% control (i.e. HC, ZPE). • 2. Cell plating • (1). Discarding the cell culture medium, and washing the cells once with DPBS; then the cells were trypsinized, counted, and used to prepare a cell suspension of 4×10^5 cells/mL; • (2). Using MultiDrop Combi to add 25 μL/well of cell suspension at medium speed to the assay plate containing the test compound; • (3). Putting the assay plate containing cells back into the incubator and culturing it at 37° C. and 5% CO2 for 16 to 18 hours.
• (1). Using MultiDrop Combi to add 25 μL/well of detection reagent (NanoGlo lysis solution+substrate+LgBit protein) to the assay plate at high speed, and shaking for 10 minutes; • (2). Centrifuging at 2000 rpm×1 min to remove bubbles; • (3). Reading the plate using Envision, US Luminescence detection method.
The following formula was used to calculate the degradation rate (DR) of the test compound: DR (%)=(RLU of vehicle control−RLU of compound)/(RLU of vehicle control−RLU of positive control)*100%, wherein the vehicle control was a blank control. The degradation rates of compounds at different concentrations were calculated in Excel, and then XLFit software was used to obtain inhibition curves and to calculate relevant parameters, including the minimum degradation rate, maximum degradation rate and DC50.
In general terms: HiBiT is a short tag that completes a luciferase, so light tracks the accessible tagged protein.

Structures are written as SMILES.

Sequence of GSPT1 (P15170 whole entry): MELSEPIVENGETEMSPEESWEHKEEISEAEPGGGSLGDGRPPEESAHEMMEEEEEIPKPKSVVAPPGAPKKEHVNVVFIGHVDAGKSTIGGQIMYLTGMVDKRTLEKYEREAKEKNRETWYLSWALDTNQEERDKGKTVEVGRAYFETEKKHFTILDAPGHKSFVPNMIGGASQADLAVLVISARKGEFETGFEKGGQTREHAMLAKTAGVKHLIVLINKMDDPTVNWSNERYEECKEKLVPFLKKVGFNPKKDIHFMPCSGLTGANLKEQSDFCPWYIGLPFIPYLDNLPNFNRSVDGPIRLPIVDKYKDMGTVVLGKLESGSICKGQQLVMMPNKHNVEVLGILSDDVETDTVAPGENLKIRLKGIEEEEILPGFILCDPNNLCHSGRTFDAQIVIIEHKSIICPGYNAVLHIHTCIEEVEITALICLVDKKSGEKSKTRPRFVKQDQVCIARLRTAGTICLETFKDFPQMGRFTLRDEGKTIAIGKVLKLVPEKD
Sequence of GSPT1 (Q96SW2 whole entry): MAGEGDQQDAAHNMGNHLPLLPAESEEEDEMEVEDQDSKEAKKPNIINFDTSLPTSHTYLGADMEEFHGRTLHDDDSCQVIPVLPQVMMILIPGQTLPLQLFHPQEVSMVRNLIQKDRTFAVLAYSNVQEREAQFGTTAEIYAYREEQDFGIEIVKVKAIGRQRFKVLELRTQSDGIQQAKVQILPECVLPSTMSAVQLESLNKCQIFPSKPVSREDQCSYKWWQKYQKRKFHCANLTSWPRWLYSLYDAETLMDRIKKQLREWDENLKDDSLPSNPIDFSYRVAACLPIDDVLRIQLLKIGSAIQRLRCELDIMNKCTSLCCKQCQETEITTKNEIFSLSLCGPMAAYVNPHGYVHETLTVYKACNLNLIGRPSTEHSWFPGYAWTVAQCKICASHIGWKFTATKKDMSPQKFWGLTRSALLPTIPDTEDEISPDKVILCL
Sequence of GSPT1 (Q16531 whole entry partner): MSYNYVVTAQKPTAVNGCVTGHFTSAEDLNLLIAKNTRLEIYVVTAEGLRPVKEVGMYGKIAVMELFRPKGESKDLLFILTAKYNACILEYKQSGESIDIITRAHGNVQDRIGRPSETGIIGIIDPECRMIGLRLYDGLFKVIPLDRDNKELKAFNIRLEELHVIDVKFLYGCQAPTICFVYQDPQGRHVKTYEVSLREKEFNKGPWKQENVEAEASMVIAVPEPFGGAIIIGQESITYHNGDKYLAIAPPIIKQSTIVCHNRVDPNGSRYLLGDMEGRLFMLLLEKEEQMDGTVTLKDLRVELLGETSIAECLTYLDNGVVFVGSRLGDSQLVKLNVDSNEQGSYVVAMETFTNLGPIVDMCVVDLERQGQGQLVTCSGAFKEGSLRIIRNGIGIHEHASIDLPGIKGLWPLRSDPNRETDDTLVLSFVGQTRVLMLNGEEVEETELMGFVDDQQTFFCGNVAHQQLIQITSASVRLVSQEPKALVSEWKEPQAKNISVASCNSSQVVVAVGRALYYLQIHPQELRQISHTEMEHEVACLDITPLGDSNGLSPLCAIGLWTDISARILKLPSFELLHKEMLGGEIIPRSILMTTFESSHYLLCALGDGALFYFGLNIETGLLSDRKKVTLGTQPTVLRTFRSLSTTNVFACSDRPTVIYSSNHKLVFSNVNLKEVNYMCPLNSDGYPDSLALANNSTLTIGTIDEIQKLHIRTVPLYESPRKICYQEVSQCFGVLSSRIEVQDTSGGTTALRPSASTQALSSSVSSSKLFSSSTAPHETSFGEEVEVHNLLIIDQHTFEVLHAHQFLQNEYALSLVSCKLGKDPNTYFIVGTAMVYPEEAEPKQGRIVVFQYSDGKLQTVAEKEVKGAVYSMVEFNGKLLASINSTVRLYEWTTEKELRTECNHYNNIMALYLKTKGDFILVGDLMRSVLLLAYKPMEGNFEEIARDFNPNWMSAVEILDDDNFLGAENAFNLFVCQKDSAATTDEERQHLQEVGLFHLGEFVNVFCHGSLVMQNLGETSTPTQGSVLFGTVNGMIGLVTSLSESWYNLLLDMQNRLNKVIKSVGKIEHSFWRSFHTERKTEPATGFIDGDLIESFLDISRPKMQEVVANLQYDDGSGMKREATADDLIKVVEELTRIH

In the case of `COCCOc1cc(NC(=O)NCc2ccc3c(C4CCC(=O)NC4=O)noc3c2)cc(Cl)c1C` (centres unmarked) [WX013], in assay [1], the “Max. IR” value came to 87.56% and 2.1 nM corresponded to half-maximal inhibition (IC50). In assay [2], the DC50 was found to be 1.07 nM and the Dmax is 100%.

Consider `COCCOc1cc(NC(=O)NCc2ccc3c(C4CCC(=O)NC4=O)coc3c2)cc(Cl)c1C` (centres unmarked) [WX005], for which, in assay [1], the “Max. IR” value was found to be 89.45% and the IC50 is 6.1 nM. Also, in assay [2], half-maximal degradation (DC50) was put at 2.51 nM and the Dmax was 100%.

The term IC50 denotes the concentration that gives 50% inhibition. A lower IC50 goes with greater potency in that assay. As a reminder, the DC50 is the concentration giving 50% degradation. High values mean a less potent degrader, low ones a more potent degrader.

Source of the values: patent US20240317722A1, “HETEROARYL-3-PIPERIDINEDIONE COMPOUND AND USE THEREOF” (Medshine Discovery Inc., priority 2021, published 2024).
